Measured values published in patent publication US20220332763A1, “FUSED POLYPEPTIDE AND USE THEREOF” (NANJING ANJI BIOLOGICAL TECHNOLOGY CO., LTD., priority 2019, published 2022).
Where no end group is shown, it is not given here.

Experiments:
Head and neck cancer = assay: cells; conditions: Homo sapiens, 48 h, read-out: Inhibitory effect (%) on tumor growth
Experimental: (§2) A plurality of types of human tumor cells were cultured in a 5% CO2 incubator at 37° C. and digested with trypsin when the density was 90% or above. The cells were resuspended in a culture solution and counted, and the cell concentration was adjusted to 2×10^4 cells/mL. The cell suspension was inoculated into a 96-well plate with 100 μL per well, and then cultured overnight in a 5% CO2 incubator at 37° C. After the cells completely adhered to the wall, each polypeptide according to the present invention was added as an administration group, and the culture solution without any drug was used as a blank control group. The solutions were diluted to 1 μmol/L by using a diluent. Each diluent was separately added to the 96-well plate with 100 per well, and the cells continued to be cultured in a 5% CO2 incubator for 48 hours at 37° C. Then 20 μL of MTT was added, and the cells continued to be cultured for 4 hours. The medium was sucked, and 100 μL of DMSO was added to each well for dissolution. Absorbance was measured by a microplate reader at a detection wavelength of 570 nm and a reference wavelength of 630 nm, and the growth inhibition rate was calculated. The formula was as follows: tumor growth inhibition rate (%)=(1−absorbance of the administration group/absorbance of the blank group)*100%. The experiment was repeated independently for 3 times.

Brain cancer = assay: cells; conditions: Homo sapiens, 48 h, read-out: Inhibitory effect (%) on tumor growth
Experimental: as §2

Esophageal cancer = assay: cells; conditions: Homo sapiens, 48 h, read-out: Inhibitory effect (%) on tumor growth
Experimental: as §2

Pancreatic cancer = assay: cells; conditions: Homo sapiens, 48 h, read-out: Inhibitory effect (%) on tumor growth
Experimental: as §2

Thyroid cancer = assay: cells; conditions: Homo sapiens, 48 h, read-out: Inhibitory effect (%) on tumor growth
Experimental: as §2

Liver cancer = assay: cells; conditions: Homo sapiens, 48 h, read-out: Inhibitory effect (%) on tumor growth
Experimental: as §2

Breast cancer = assay: cells; conditions: Homo sapiens, 48 h, read-out: Inhibitory effect (%) on tumor growth
Experimental: as §2

Gastric cancer = assay: cells; conditions: Homo sapiens, 48 h, read-out: Inhibitory effect (%) on tumor growth
Experimental: as §2

Kidney cancer = assay: cells; conditions: Homo sapiens, 48 h, read-out: Inhibitory effect (%) on tumor growth
Experimental: as §2

Colorectal cancer = assay: cells; conditions: Homo sapiens, 48 h, read-out: Inhibitory effect (%) on tumor growth
Experimental: as §2

Ovarian cancer = assay: cells; conditions: Homo sapiens, 48 h, read-out: Inhibitory effect (%) on tumor growth
Experimental: as §2

Cervical cancer = assay: cells; conditions: Homo sapiens, 48 h, read-out: Inhibitory effect (%) on tumor growth
Experimental: as §2

Prostate cancer = assay: cells; conditions: Homo sapiens, 48 h, read-out: Inhibitory effect (%) on tumor growth
Experimental: as §2

Melanoma = assay: cells; conditions: Homo sapiens, 48 h, read-out: Inhibitory effect (%) on tumor growth
Experimental: as §2

Hemangioma = assay: cells; conditions: Homo sapiens, 48 h, read-out: Inhibitory effect (%) on tumor growth
Experimental: as §2

Sarcoma = assay: cells; conditions: Homo sapiens, 48 h, read-out: Inhibitory effect (%) on tumor growth
Experimental: as §2

Lung cancer = assay: cells; conditions: Homo sapiens, 48 h, read-out: Inhibitory effect (%) on tumor growth
Experimental: as §2

Uterus cancer = assay: tissue or blood; conditions: Homo sapiens, 48 h, read-out: Inhibitory effect (%) on tumor growth
Experimental: as §2

[1] = test system: SD rats with bleomycin-induced pulmonary fibrosis; assay: Bleomycin-induced pulmonary fibrosis animal model; assay type: in vivo; conditions: for Survival rate (%): dosage 10 mg/kg in Table 2, administration 14 days, model group 50
Experimental: SD rats were anesthetized by intraperitoneal injection of 1 mL/100 g 4% chloral hydrate. After anesthesia, the rats were fixed and their necks were disinfected by using cotton with 75% alcohol. The skin of the rat neck was longitudinally cut with scissors, and the fascia and muscle were longitudinally bluntly torn with tweezers to expose the trachea. A syringe was inserted into the trachea to inject 5 mg/kg bleomycin, while a blank group was injected with an equal amount of normal saline. Then a rat plate was quickly erected and rotated, the rats' breathing was observed, the neck wound was sterilized after rotation and was sewn, and an amoxicillin anti-inflammatory drug was sprinkled on the suture. After the operation, the rats were put back into a dry and clean cage for resting, waiting was performed for awakening. The rats were awakened after about 1-2 hours, and then fed normally. On the 7th day after modeling, modeling group animals randomly fell into a model group, a Nintedanib positive drug group, polypeptide I, II, III, IV, V, VI dosage groups, and a normal control group, and the groups were administered separately for an administration cycle of 14 days. Living situations of rats were observed every day and their weights were weighed. After administration for 14 days, the SD rats were dissected, the lung tissue was taken, and the right lung tissue was placed in a tissue fixative only for fixation, and HE staining and Masson staining and slice analysis were performed.

[2] = test system: LX-2 hepatic stellate cells; assay: In vitro hepatic fibrosis model, MTT assay; assay type: cell-based; conditions: 1 μmol/L; for Inhibition of proliferation (in words): 24 hours and 48 hours, Example 2; for Optical density value, 12 h / Optical density value, 24 h / Optical density value, 48 h: LX-2 cells, MTT, OD at 570 nm; for Optical density value, 12 h: blank group 0.456 ± 0.012; for Optical density value, 24 h: blank group 0.548 ± 0.01; for Optical density value, 48 h: blank group 0.812 ± 0.016
Experimental: (§1) The inhibitory effect of a polypeptide on LX-2 hepatic stellate cells was detected by MTT assay. Cells were cultured in a 1640 medium containing 10% of FBS, the […] was made into 4×10^5/mL cell suspension, and 100 μL per well was inoculated into a 96-well plate. After the cells adhered to the wall, the medium was replaced with a serum-free 1640 medium, and the serum-free medium was discarded after 24 hours. The cells were cultured with different polypeptides of 1 μmol/L, and 5 multiple wells were set for each concentration. After 12, 24 and 48 hours separately, 10 μL of MTT was added to each well. After 4 hours, MTT was sucked out, and 150 μL of DMSO was added to each well. After reaction for 5 min, an OD value was measured at 570 nm by a microplate reader.

TGF-β1 = assay: Renal fibrosis animal model (ureter ligation), TGF-β1 in serum; assay type: in vivo; conditions: SD rats with renal fibrosis; 7.5 mg/kg subcutaneous twice a day, 14 days; FIG. 3
Experimental: A renal fibrosis animal model was established. SD rats were anesthetized with 4% chloral hydrate, injected with 1 mL/100 g intraperitoneally, fixed to an operation board, and sterilized in an operation area for later use. […] Muscular layers and abdominal walls were sewed layer by layer, the suture was disinfected with alcohol. After SD rats woke up, the rats were put into a cage for feeding. In the blank group, ureter was not ligated, and other steps were the same.
Then, the animals fell into a blank group, a model group, and polypeptide administration groups, with 10 animals in each group, and the administration was started on the second day after the operation, twice a day for 14 days. After administration for 14 days, blood was taken and supernatant was taken to detect the content of TGF-β1 in serum.

[3] = test system: cardiac fibroblasts of rats; assay: Myocardial fibrosis model, MTT assay; assay type: cell-based; conditions: 1 μmol/L; for Inhibition of proliferation of cardiac fibroblasts of rats (in words): 24 hours and 48 hours; for Optical density value, 12 h / Optical density value, 24 h / Optical density value, 48 h: cardiac fibroblasts of rats, MTT, OD at 570 nm; for Optical density value, 12 h: blank group 0.353 ± 0.001; for Optical density value, 24 h: blank group 0.464 ± 0.018; for Optical density value, 48 h: blank group 0.896 ± 0.001
Experimental: as §1, with “cardiac fibroblasts of rats” for “LX-2 hepatic stellate cells”, “DMEM” for “1640”, “1×10^5/mL” for “4×10^5/mL”

HYP = assay: Bleomycin skin fibrosis model, HYP content in skin tissue; assay type: in vivo, C57/BL black mice; conditions: bleomycin skin fibrosis mice; 10 mg/kg subcutaneous twice a day, 28 days; FIG. 4
Experimental: Bleomycin (10 μg/mL) was injected subcutaneously every day for 28 days to form skin fibrosis. During the modeling period, the administration groups were given polypeptide drugs twice a day for treatment. After modeling, the mice were killed on the next day, and the skin tissue of the mouse back was taken to detect the content of HYP in the skin tissue.

Row | Compound | Survival rate (%) [1] [%] | Inhibition of proliferation (in words) [2] | Optical density value, 12 h [2] | Optical density value, 24 h [2] | Optical density value, 48 h [2] | Content of TGF-β1 in serum versus model group (TGF-β1) | Inhibition of proliferation of cardiac fibroblasts of rats (in words) [3] | Optical density value, 12 h [3] | Optical density value, 24 h [3] | Optical density value, 48 h [3] | Expression of HYP content in tissue versus model group (HYP) | also measured
1 | CC(=O)O[C@@]12CO[C@@H]1C[C@H](O)[C@@]1(C)C(=O)[C@H](O)C3=C(C)[C@@H](OC(=O)[C@H](O)[C@@H](NC(=O)OC(C)(C)C)c4ccccc4)C[C@@](O)([C@@H](OC(=O)c4ccccc4)[C@H]21)C3(C)C [Docetaxel] | – | – | – | – | – | – | – | – | – | – | – | inhibition at 1 µM (Head and neck cancer): 62.5 ± 2.12%; inhibition at 1 µM (Brain cancer): 68.1 ± 10.3%; inhibition at 1 µM (Esophageal cancer): 64.4 ± 8.06%; inhibition at 1 µM (Pancreatic cancer): 76.7 ± 10.1%; inhibition at 1 µM (Thyroid cancer): 73.2 ± 19.3%; inhibition at 1 µM (Liver cancer): 74.2 ± 11.7%; inhibition at 1 µM (Breast cancer): 65.1 ± 10.7%; inhibition at 1 µM (Gastric cancer): 74.2 ± 6.38%; inhibition at 1 µM (Kidney cancer): 75.5 ± 10.2%; inhibition at 1 µM (Colorectal cancer): 53.5 ± 10.4%; inhibition at 1 µM (Ovarian cancer): 62.8 ± 20.2%; inhibition at 1 µM (Cervical cancer): 66.6 ± 11.3%; inhibition at 1 µM (Prostate cancer): 78.4 ± 4.21%; inhibition at 1 µM (Melanoma): 68.4 ± 6.23%; inhibition at 1 µM (Hemangioma): 78.8 ± 6.16%; inhibition at 1 µM (Sarcoma): 62.5 ± 8.75%; inhibition at 1 µM (Lung cancer): 73.3 ± 7.03%; inhibition at 1 µM (Uterus cancer): 57.2 ± 12.3%
2 | LSKLGGGGTSLDASIIWAMMQNGGGGSDKP [Polypeptide VI, Leu-Ser-Lys-Leu-linker-Thr-Ser-Leu-Asp-Ala-Ser-Ile-Ile-Trp-Ala-Met-Met-Gln-Asn-linker-Ser-Asp-Lys-Pro] | 70 | could inhibit the proliferation | 0.453 ± 0.021 | 0.502 ± 0.013 | 0.652 ± 0.018 | highly significantly different from the model group (**P<0.01) | could inhibit the proliferation | 0.340 ± 0.012 | 0.412 ± 0.005 | 0.622 ± 0.007 | highly significantly different from the model group (***P<0.001) | –
3 | Ac-SDKPGGGGTSLDASIIWAMMQNGGGGLSKL (N-terminus assumed) [Polypeptide II, Ser-Asp-Lys-Pro-linker-Thr-Ser-Leu-Asp-Ala-Ser-Ile-Ile-Trp-Ala-Met-Met-Gln-Asn-linker-Leu-Ser-Lys-Leu] | 80 | could inhibit the proliferation | 0.463 ± 0.012 | 0.394 ± 0.005 | 0.578 ± 0.005 | highly significantly different from the model group (***P<0.001) | could inhibit the proliferation | 0.352 ± 0.004 | 0.367 ± 0.016 | 0.568 ± 0.013 | highly significantly different from the model group (***P<0.001) | –
4 | Ac-SDKPGGGGLSKLGGGGTSLDASIIWAMMQN (N-terminus assumed) [Polypeptide I, Ser-Asp-Lys-Pro-linker-Leu-Ser-Lys-Leu-linker-Thr-Ser-Leu-Asp-Ala-Ser-Ile-Ile-Trp-Ala-Met-Met-Gln-Asn] | 90 | could inhibit the proliferation | 0.452 ± 0.008 | 0.542 ± 0.03 | 0.680 ± 0.014 | highly significantly different from the model group (***P<0.001) | could inhibit the proliferation | 0.362 ± 0.006 | 0.402 ± 0.002 | 0.678 ± 0.002 | highly significantly different from the model group (*P<0.05) | Survival rate compared with model group / positive drug group ([1]; in words): equivalent to that of the positive drug group
